From patent US20230381321A1, “CAMPTOTHECIN CONJUGATES” (priority 2022, published 2023)
pIC50: −log10 of the molar value. Read-outs that look alike come from different tables or passages of the source.

How the values were obtained:
Assay type in all cases: cell-based
[1] = test system: anaplastic large cell lymphoma cells (DEL); test: In vitro potency (CellTiter-Glo, 96 h) on DEL; conditions: read-out: DEL IC50
Method in brief: (§1)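 […] are titrated onto log-phase cells pre-seeded for 24 h in RPMI 1640 supplemented with 20% FBS. Growth inhibition comes from luminescence.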

melanoma cells (A2058) = test: In vitro potency (CellTiter-Glo, 96 h) on A2058; conditions: read-out: A2058 IC50
Method in brief: as §1

[2] = test system: renal carcinoma cells (786-O); test: In vitro potency (CellTiter-Glo, 96 h) on 786-O; conditions: read-out: 786-O IC50
Method in brief: as §1

[3] = test system: B-lymphocyte cancer cells (SU-DHL4); test: In vitro potency (CellTiter-Glo, 96 h) on SU-DHL4; conditions: read-out: SU-DHL-4 IC50
Method in brief: as §1

[4] = test system: pancreatic cancer cells (BxPC3); test: In vitro potency (CellTiter-Glo, 96 h) on BxPC3; conditions: read-out: BxPC3 IC50
Method in brief: as §1

[5] = test system: acute myeloid leukemia cells (MOLM-13); test: In vitro potency (CellTiter-Glo, 96 h) on MOLM-13; conditions: read-out: MOLM-13 IC50
Method in brief: as §1

[6] = test system: Hodgkin's lymphoma cells (L540cy); test: In vitro potency (CellTiter-Glo, 96 h) on L540cy; conditions: read-out: L540cy IC50
Method in brief: as §1

[7] = test system: anaplastic large cell lymphoma cells (Karpas299); test: In vitro potency (CellTiter-Glo, 96 h) on Karpas299; conditions: read-out: Karpas299 IC50
Method in brief: as §1

[8] = test system: non-small-cell lung cancer cells (Calu1); test: In vitro potency (CellTiter-Glo, 96 h) on Calu1; conditions: read-out: Calu1 IC50
Method in brief: as §1

[9] = In vitro potency (CellTiter-Glo, 96 h) on Ls174T; conditions: read-out: Ls174T IC50
Method in brief: as §1

[10] = test system: breast cancer cells (MDA-MB-231); test: In vitro potency (CellTiter-Glo, 96 h) on MDA-MB-231; conditions: read-out: MDAMB 231 IC50
Method in brief: as §1

[11] = test system: anaplastic large cell lymphoma cells (DELBVR); test: In vitro potency (CellTiter-Glo, 96 h) on DELBVR; conditions: read-out: DELBVR IC50
Method in brief: as §1

[12] = 96 h, CPT free drugs, CellTiter-Glo after 96 h exposure
[13] = Homo sapiens, A2058, 96 h, CPT free drugs, CellTiter-Glo after 96 h exposure
[14] = Homo sapiens, 786-0, 96 h, CPT free drugs, CellTiter-Glo after 96 h exposure
[15] = Homo sapiens, SU-DHL-4, 96 h, CPT free drugs, CellTiter-Glo after 96 h exposure
[16] = Homo sapiens, BXPC-3, 96 h, CPT free drugs, CellTiter-Glo after 96 h exposure
[17] = Homo sapiens, MOLM-13, 96 h, CPT free drugs, CellTiter-Glo after 96 h exposure
[18] = L540cy, 96 h, CPT free drugs, CellTiter-Glo after 96 h exposure
[19] = Homo sapiens, KARPAS-299, 96 h, CPT free drugs, CellTiter-Glo after 96 h exposure
[20] = Homo sapiens, Calu-1, 96 h, CPT free drugs, CellTiter-Glo after 96 h exposure
[21] = Homo sapiens, LS174T, CPT free drugs, CellTiter-Glo after 96 h exposure
[22] = Homo sapiens, MDA-MB-231, 96 h, CPT free drugs, CellTiter-Glo after 96 h exposure
[23] = CPT free drugs, CellTiter-Glo after 96 h exposure

Structure (SMILES)	pIC50 [1, 12]	pIC50 (melanoma cells (A2058); [13])	pIC50 [2, 14]	pIC50 [3, 15]	pIC50 [4, 16]	pIC50 [5, 17]	pIC50 [6, 18]	pIC50 [7, 19]	pIC50 [8, 20]	pIC50 [9, 21]	pIC50 [10, 22]	pIC50 [11, 12]	also measured
CC[C@@]1(O)C(=O)OCc2c1cc1n(c2=O)Cc2c-1nc1cc3c(cc1c2CN)CCO3 [Compound 2n, (5S)-14-(aminomethyl)-5-ethyl-5-hydroxy-7,20-dioxa-11,24-diazahexacyclo[11.11.0.02,11.04,9.015,23.017,21]tetracosa-1(24),2,4(9),13,15(23),16,21-heptaene-6,10-dione;2,2,2-trifluoroacetic acid]													pIC50 ([1]; 96 h): 9.00; pIC50 (melanoma cells (A2058); Homo sapiens, A2058, 96 h): 8.52; pIC50 ([2]; Homo sapiens, 786-0, 96 h): 8.30; pIC50 ([3]; Homo sapiens, SU-DHL-4, 96 h): 9.00; pIC50 ([4]; Homo sapiens, BXPC-3, 96 h): 8.52; pIC50 ([5]; Homo sapiens, MOLM-13, 96 h): 7.54; pIC50 ([6]; L540cy, 96 h): 8.70; pIC50 ([7]; Homo sapiens, KARPAS-299, 96 h): 8.30; pIC50 ([8]; Homo sapiens, Calu-1, 96 h): 7.74; pIC50 ([9]; Homo sapiens, LS174T, 96 h): 8.40; pIC50 ([10]; Homo sapiens, MDA-MB-231, 96 h): 8.10; pIC50 ([11]; 96 h): 9.00
C=Cc1ccc2nc3c(c(CN)c2c1)Cn1c-3cc2c(c1=O)COC(=O)[C@]2(O)CC [Compound 33, (19S)-10-(aminomethyl)-19-ethyl-19-hydroxy-7-vinyl-17-oxa-3,13-diazapentacyclo[11.8.0.02,11.04,9.015,20]henicosa-1(21),2,4,6,8,10,15(20)-heptaene-14,18-dione]	8.70	8.22	8.00	8.40	7.96	7.07	8.40	8.10	7.44	7.85	7.74	8.70	
CC[C@@]1(O)C(=O)OCc2c1cc1n(c2=O)Cc2c-1nc1cc3c(cc1c2CN)CCS3 [Compound 2ar]	8.15	8.15	7.59	7.89	7.37	6.59	8.40	7.54	7.59	7.85	7.85	8.30	
CC[C@@]1(O)C(=O)OCc2c1cc1n(c2=O)Cc2c-1nc1cc(F)c(C)c(C3=CCN(C(C)=O)CC3)c1c2CN [Compound 6k]	8.15	7.77	7.10	7.68	7.02	7.89	7.80	7.40	6.77	7.34	6.43	7.96	
CC[C@@]1(O)C(=O)OCc2c1cc1n(c2=O)Cc2c-1nc1cc3c(cc1c2CO)CCO3 [Compound 35]													pIC50 ([1]; 96 h): 9.22; pIC50 (melanoma cells (A2058); Homo sapiens, A2058, 96 h): 8.70; pIC50 ([2]; Homo sapiens, 786-0, 96 h): 8.40; pIC50 ([3]; Homo sapiens, SU-DHL-4, 96 h): 9.00; pIC50 ([4]; Homo sapiens, BXPC-3, 96 h): 8.22; pIC50 ([5]; Homo sapiens, MOLM-13, 96 h): 7.66; pIC50 ([6]; L540cy, 96 h): 8.70; pIC50 ([7]; Homo sapiens, KARPAS-299, 96 h): 8.40; pIC50 ([8]; Homo sapiens, Calu-1, 96 h): 8.05; pIC50 ([9]; Homo sapiens, LS174T, 96 h): 8.52; pIC50 ([10]; Homo sapiens, MDA-MB-231, 96 h): 8.30; pIC50 ([11]; 96 h): 9.00
CC[C@@]1(O)C(=O)OCc2c1cc1n(c2=O)Cc2c-1nc1cc3c(c(F)c1c2CN)CCC3 [Compound 5b]	7.77	7.77	7.16	7.57	6.89	< 6.00	8.00	7.34	7.27	7.35	7.44	7.82	
CC[C@@]1(O)C(=O)OCc2c1cc1n(c2=O)Cc2c-1nc1cc3c(cc1c2CN)C(C)CO3 (stereo partly drawn) [Compound 11, (5S)-14-(aminomethyl)-5-ethyl-5-hydroxy-18-methyl-7,20-dioxa-11,24 diazahexacyclo[11.11.0.02,11.04,9.015,23.017,21]tetracosa-1(24),2,4(9),13,15(23),16,21-heptaene-6,10-dione]	9.00	8.52	8.10	8.40	7.92		8.40	7.85	7.16	< 6.00		8.70	pIC50 [5, 23]: 6.97; pIC50 [10, 23]: 7.39
CC[C@@]1(O)C(=O)OCc2c1cc1n(c2=O)Cc2c-1nc1cc3c(cc1c2CN)C(C)CO3 (single isomer, unassigned) [Compound 11a]													pIC50 [1, 23]: 8.70; pIC50 (melanoma cells (A2058); [23]): 8.30; pIC50 [2, 23]: 7.82; pIC50 [3, 23]: 8.52; pIC50 [4, 23]: 7.64; pIC50 [5, 23]: 7.85; pIC50 [6, 23]: 8.22; pIC50 [7, 23]: 7.89; pIC50 [8, 23]: 6.88; pIC50 [9, 23]: < 6.00; pIC50 [10, 23]: 7.00; pIC50 [11, 23]: 8.40
CC[C@@]1(O)C(=O)OCc2c1cc1n(c2=O)Cc2c-1nc1cccc(OC)c1c2CN [Compound 5a]	8.15	7.80	7.25	7.92	6.81	7.14	7.70	7.55	6.41	< 6.00	6.46	8.00	
